Measured values: patent US9139615B2, “High-affinity, dimeric inhibitors of PSD-95 as efficient neuroprotectants against ischemic brain damage and for treatment of pain” (University of Copenhagen, priority 2011, dated 2015)
Values joined by “and” are separate entries in the source; they are usually repeats but may differ in a detail not shown here. Identical values can stand only once. “Also recorded” adds a separate entry of the source. Where a SMILES comes first, the peptide text is derived from it. The star is where a group is joined. 5FAM = O=C1OC2(c3ccc(O)cc3Oc3cc(O)ccc32)c2ccc(C(=O)*)cc21

Experiments:
[1] = Spinal cord detection of fluorescent PSD-95 inhibitors; type: in vivo, mice; conditions: 30 mg/kg i.p., 30 min after injection
Description: To investigate if AB143 and AB145 are able to enter spinal cord tissue, they were administered to the mice by intraperitoneal injection (30 mg/kg). The drug-treated mice were decapitated 30 min after injection, and the spinal cord was carefully dissected out, to which 5% trichloroacetic acid (TCA) (300 μL per 0.1 g tissue) was added and the tissue homogenized with an ultrasonic homogenizer (on ice). The homogenated tissue was vortexed and centrifuged for 10 min (20000 g at 4° C.). The supernatant was transferred to a test tube and evaporated, and the residue was reconstituted in water and its fluoresence intensity was determined by using a fluorescence plate reader (excitation/emission:470/525 nm). For quantification of the compounds, a standard curve was prepared by spiking a known amount of AB143 and AB145 into spinal cord tissue from control mice prior to homogenization, followed by work-up and analysis similar to the drug-treated mice.

[2] = Blood-brain barrier permeability of fluorescent analogues; type: in vivo, mice; conditions: 5-FAM-labeled, 3 nmol/g i.v., 2 hours after injection, unmanipulated mice
Description: VI.ii. Blood-brain Barrier Permeability. […] After injection of the compounds, the mice are perfused with paraformaldehyde and the brains are carefully removed, post-fixed in paraformaldehyde, processed into coronal sections, and quantified for fluorescence (Example 8).
The fluorescent ligands were injected intravenously (3 nmol/g) and the location of the ligands was detected by fluorescence microscopy of coronal brain slices (n=8) mice, was evaluated 2 hours after injection. Two sections of the brain, prior to and two after the anterior commissure (n=5), were selected for BBB permeability analysis. The anterior commissure (Bregma: −0.3) was used as a fix point in the brain in order to analyse anatomically identical brain sections. The intensity of the 5-FAM fluorophore was measured semi-quantitatively using a fluorescence microscopy system (Olympus System Microscope model BX-51, Denmark) with a 10× objective (Olympus 10×/0.15 UPlanApo) connected to a high-resolution microscope digital camera (Olympus model DP70), which transferred images to an image-capturing software (Image Pro Plus software). All images were taken using the same microscope settings and with constant camera exposure time. Intensities were quantified using the ImageJ software.
5-FAM-labeled derivative of Tat-NR2B9c is designated MS23. After injection of the compounds, the mice are perfused with paraformaldehyde and the brains are carefully removed, post-fixed in paraformaldehyde, processed into coronal sections, and quantified for fluorescence.
C57BL/6 mice with 6 hour post-surgical survival time were euthanized by cervical dislocation. C57BL/6 mice with 48 hour post-surgical survival were anesthetized with an overdosed of pentobarbital (the pharmacy of the Faculty of Life Sciences, University of Copenhagen, Denmark) in order to collect blood and tissue samples. All brains were carefully removed, frozen in gaseous CO2 and cut into 6 series of 30 μm coronal cryostat sections and stored at −80° C. until further use. C57BL/6J mice used to investigate the blood-brain barrier (BBB) permeability of AB143, AB145, AB148, and MS23 were deeply anesthetized and perfused through the left ventricle, using 10 ml chilled Soerensens phosphate buffer (SB) ([…], 125 mM Na2HPO4, pH 7.4) followed by 20 mL SB containing 4% paraformaldehyde (PFA). The brains were carefully removed and post-fixed in 4% PFA for 1 hour followed by immersion in SB containing 20% sucrose over night. The brains were frozen on gaseous CO2 and processed into 16 μm coronal cryostat sections.

[3] = tested on: pMCAO model of ischemic stroke; experiment: Grip strength after pMCAO; type: in vivo, mice; conditions: 48 hours after pMCAO, 3 nmol/g i.v.
Description: The grip strength meter (BIO-GT-3, BIOSEB) allows the study of neuromuscular functions in mice by determining the maximum force that is required to make the mouse release its grip. The grip strength in individual paws was used to measure the severity of the pMCAO-induced asymmetry. The mouse is allowed to grasp a metal grid and then pulled backwards in the horizontal plane. The force applied to the grid is recorded as the peak tension. The strength of individual front paws and the total grip strength (both paws simultaneously) were measured before (baseline) and after pMCAO. Each mouse is tested in 5 sequential trials and the highest grip strength is recorded as the best score.

[4] = tested on: pMCAO model of ischemic stroke; experiment: Rotarod performance test after pMCAO; type: in vivo, mice; conditions: 48 hours after pMCAO
Description: The rotarod (LE 8200, Panlab) is well suited to evaluate motor activity in rodents, experimental compound effects on central nervous system damage, or disease effects on motor coordination, assessed by the time during which the animal remains walking in a rotating drum. The rotation of the rotarod is motor drived and accelerates from 0 to 40 rounds per min (rpm) over a time period of 5 min, at which time all mice have fallen off the rod. All mice were tested in 4 repeating trials with a 20 min interval (resting time). Prior to surgery mice were pre-trained to stay on the rod for 30 seconds, at 4 rpm.

[5] = Physiological status of pMCAO mice (blood values, body weight, temperature, survival); type: in vivo; conditions: mouse, in vivo
Description: The physiological status of the mice was carefully monitored prior to and during pMCAO surgery in order to exclude the observed effects of treatment with dimeric PSD-95 inhibitors being due to secondary conditions (e.g. disease-related) resulting from the experimental procedure.
9.10 Body weight monitoring: The body weight of each mouse was registered during pre-training, before surgery, and at 24 and 48 hours after surgery and no differences were seen between the treatment groups (FIG. 13).
9.11 Temperature monitoring: The rectal temperature of the mouse was continuously measured using a thermocoupled probe connected to a Model Bat 12 unit (Physitemp). The temperature was measured prior to and 30 min after pMCAO in addition to 30 min and 2.5 hours after i.v. injection, i.e. 1 and 3 hours after pMCAO.
9.12 Blood gas analysis: One samples of venous blood was taken for blood gas analysis of PO2/PCO2 electrolytes, glucose, lactate, and hematocrit, 30 min after compound administration (1 hour after pMCAO). A capillary heparin coated tube was inserted along the inner corner of eye and turned until it penetrated the conjunctiva. A sample of blood (150 μl) was collected and stored on ice until gas analysis using the GEM Premier 300 blood gas instrument (Instrumentation Laboratory) Quality controls (QC ContrlIL9) were purchased from IL Sensor Systems. Also, no differences were detected in blood gas parameters (PO2/PCO2, pH, electrolytes, glu/lac), which were similar between the groups and within normal range, when compared to unmanipulated control mice (Table 4).

[6] = Human blood plasma stability assay; type: in vitro ADME
Description: Ligands (dimeric PSD-95 inhibitors) for the PDZ domain of PSD-95 were dissolved in human blood plasma (270 μL; 3H Biomedical, Sweden, cat no 1300-1-P50) to a concentration of 0.25 mM (30 μL, of 2.5 mM) and incubated at 37° C. Aliquots (30 μL) were removed at various time intervals (e.g. 0, 5, 10, 20, 40, 80, 160, 320, 960, 1280, 2550, 4560 and 7240 min) and quenched with 60 μL, trichloroacetic acid (aq., 5%). The aliquots were vortexed, and incubated 15 min, at 4° C. prior to centrifugation at 18,000 g for 2 min. The supernatants were analyzed by analytical RP-HPLC (UV218) to quantify compound relative to time zero, and also evaluated qualitatively by ESI-LC/MS in order to identify the compound (m/z) in the sample. Procaine (positive control) and procainamide (negative control) were investigated at 50 μM to validate the procedure. Ligand recoveries following the precipitation procedure were between 85-95%.

CC[C@H](C)[C@H](NC(=O)CCOCCOCCN(CCOCCOCCC(=O)N[C@H](C(=O)N[C@@H](CCC(=O)O)C(=O)N[C@H](C(=O)N[C@@H](CC(=O)O)C(=O)N[C@H](C(=O)O)C(C)C)[C@@H](C)O)[C@@H](C)CC)C(=O)[C@H](CCCNC(=N)N)NC(=O)[C@H](CCCNC(=N)N)NC(=O)[C@H](CCCNC(=N)N)NC(=O)[C@H](CCC(N)=O)NC(=O)[C@H](CCCNC(=N)N)NC(=O)[C@H](CCCNC(=N)N)NC(=O)[C@H](CCCCN)NC(=O)[C@H](CCCCN)NC(=O)[C@H](CCCNC(=N)N)NC(=O)CNC(=O)[C@H](Cc1ccc(O)cc1)NC(=O)c1ccc2c(c1)C(=O)OC21c2ccc(O)cc2Oc2cc(O)ccc21)C(=O)N[C@@H](CCC(=O)O)C(=O)N[C@H](C(=O)N[C@@H](CC(=O)O)C(=O)N[C@H](C(=O)O)C(C)C)[C@@H](C)O [AB145, F-Tat-NPEG4(IETDV)2]
fluorescence in spinal cord tissue compared to saline-treated mice [1]: clear and distinct fluorescence increase | concentration in spinal cord, Average ± SEM ([1]; mice): 0.074 nmol/g and 0.074 ± 0.022 nmol/g | concentration in spinal cord, individual samples ([1]; mice): 0.035 nmol/g and 0.132 nmol/g and 0.108 nmol/g and 0.084 nmol/g and 0.012 nmol/g | entry into brain, fluorescence microscopy of coronal brain slices [2]: enter the brain; also recorded: Detection

CC[C@H](C)[C@H](NC(=O)CCOCCOCCN(CCOCCOCCC(=O)N[C@H](C(=O)N[C@@H](CCC(=O)O)C(=O)N[C@H](C(=O)N[C@@H](CC(=O)O)C(=O)N[C@H](C(=O)O)C(C)C)[C@@H](C)O)[C@@H](C)CC)C(=O)[C@@H](CCCNC(=N)N)NC(=O)[C@@H](CCCCN)NC(=O)[C@@H](CCCCN)NC(=O)[C@@H](CCCNC(=N)N)NC(=O)[C@@H](CCCNC(=N)N)NC(=O)[C@@H](CCC(N)=O)NC(=O)[C@@H](CCCNC(=N)N)NC(=O)[C@@H](CCCNC(=N)N)NC(=O)[C@H](N)CCCNC(=N)N)C(=O)N[C@@H](CCC(=O)O)C(=O)N[C@H](C(=O)N[C@@H](CC(=O)O)C(=O)N[C@H](C(=O)O)C(C)C)[C@@H](C)O [AB147, Retroinverso-D-Tat-NPEG4(IETDV)2]
grip strength asymmetry between right and left front paw [3]: no asymmetry and not | total grip strength (both paws) compared to baseline [3]: no significant change in total grip strength; also recorded: No difference compared to baseline | total time spent on the rod ([4]; 3 nmol/g i.v., four trials): 92.6 ± 4.5 s | short term learning skill improvement on rotarod compared to saline ([4]; trials T1-T4): more pronounced short term learning skill improvement | Hct [5]: 41.3 ± 0.6% | [Ca2+] [5]: 1.31 ± 0.01 mmol/L | [K+] [5]: 5.1 ± 0.18 mmol/L | [Lactate] [5]: 0.90 ± 0.05 mmol/L | [Na+] [5]: 147 ± 0.5 mmol/L | pCO2 [5]: 104 ± 2.5 mmHg | pO2 [5]: 56.4 ± 2.9 mmHg | degradation in human blood plasma [6]: No detectable degradation

CC[C@H](C)[C@H](N)C(=O)N[C@@H](CCC(=O)O)C(=O)N[C@H](C(=O)N[C@@H](CC(=O)O)C(=O)N[C@H](C(=O)O)C(C)C)[C@@H](C)O [IETDV, reference compound]
half-life at 0.25 mM ([6]; human, human blood plasma, 0.25 mM, 37° C., in vitro, read-out: half-life (T1/2) in human blood plasma): 37 ± 6 min

CC[C@H](C)[C@H](NC(=O)[C@H](CO)NC(=O)[C@H](CO)NC(=O)[C@H](CC(C)C)NC(=O)[C@H](CCCCN)NC(=O)[C@H](CCCNC(=N)N)NC(=O)[C@H](CCCNC(=N)N)NC(=O)[C@H](CCCNC(=N)N)NC(=O)[C@H](CCC(N)=O)NC(=O)[C@H](CCCNC(=N)N)NC(=O)[C@H](CCCNC(=N)N)NC(=O)[C@H](CCCCN)NC(=O)[C@H](CCCCN)NC(=O)[C@H](CCCNC(=N)N)NC(=O)CNC(=O)[C@H](Cc1ccc(O)cc1)NC(=O)c1ccc2c(c1)C(=O)OC21c2ccc(O)cc2Oc2cc(O)ccc21)C(=O)N[C@@H](CCC(=O)O)C(=O)N[C@@H](CO)C(=O)N[C@@H](CC(=O)O)C(=O)N[C@H](C(=O)O)C(C)C [MS23, F-Tat-NR2B9c, reference compound] (5FAM-YGRKKRRQRRRKLSSIESDV-OH)
entry into brain, fluorescence microscopy of coronal brain slices [2]: Detection
